In patent US20050214285A1, “Epitopes or mimotopes derived from the C-epsilon-3 or C-epsilon-4 domains of IgE, antagonists thereof, and their therapeutic uses” (SmithKline Beecham Biologicals, s.a. and Peptide …, priority 1999, published 2005):
Positions of bridges follow the written chain, without caps; N, C: chain ends. Residues, ends and D or L forms follow the SMILES beside them. No end group written: not given here.

Columns and labels:
PTmAb0011 [1] = assay: Phage display ranking of peptide ligands for PTmAb0011; assay type: binding, mouse; conditions: primary phage display biopannings (Table 7)
Source text: (§1) Phage display libraries were used to map the binding sites of the monoclonal antibodies using three different phage libraries, displaying either the XCX15, XCX10 or XAX10 peptide sequence (where X is any amino acid) at the N-terminus of the phage gVIIIp. Tables 6 and 7 show the results of selecting for peptide ligands with the anti human IgE monoclonal antibodies […]. […]
(§2) This involved a DNA sub-cloning transfer from the major coat protein (gVIIIp) filamentous phage display vector to a lower copy number minor phage coat protein (gIIIp) display vector with a random PCR step. […] Included in the tables are ranking orders and also BIAcore affinities where available.

PTmAb0005 [2] = assay: BIAcore affinity to PTmAb0005; assay type: binding; conditions: read-out: PTmAb BIAcore KD^Rel (μM) PTmAb0005
Source text: as §2
(§3) Thus indicating the importance of correct presentation of the peptides of the present invention to adopt a shape which closely resembles the native target in the context of the whole IgE molecule. [drawing]

PTmAb0011 [3] = assay: BIAcore affinity to PTmAb0011; assay type: binding, mouse; conditions: read-out: PTmAb BIAcore KD^Rel (μM) PTmAb0011
Source text: as §2, §3

PTmAb0005 [4] = assay: Phage display ranking of peptide ligands for PTmAb0005; assay type: binding; conditions: primary phage display biopannings (Table 6)
Description: as §1
This was performed by introducing random mutations by PCR mutagenesis and sub-cloning into the Fuse 5 vector for minor filamentous phage protein gIIIp display. These, and other results, confirmed the importance of the amino acids within IgEC67 which aligned with the Cε2 epitope. […] Mutations in other sites had little effect on the affinity to PTmAb0005.
as §2

| Compound | Kd (PTmAb0005 [2]) [µM] | Kd (PTmAb0011 [3]) [µM] | Rank (ECL) PTmAb0011 (PTmAb0011 [1]) | Rank (ECL) PTmAb0005 (PTmAb0005 [4]) |
| --- | --- | --- | --- | --- |
| CC[C@H](C)[C@H](NC(=O)[C@@H]1CSSC[C@H](NC(=O)[C@@H](N)CCCNC(=N)N)C(=O)N[C@@H](CCC(=O)O)C(=O)N[C@@H](CCC(=O)O)C(=O)N[C@@H](Cc2c[nH]c3ccccc23)C(=O)N[C@@H](CC(C)C)C(=O)N1)C(=O)N1CCC[C@H]1C(=O)N1CCC[C@H]1C(=O)N[C@@H](C)C(=O)N1CCC[C@H]1C(=O)N[C@@H](C)C(=O)N[C@@H](Cc1ccccc1)C(=O)N[C@@H](C)C(=O)N1CCC[C@H]1C(=O)N1CCC[C@H]1C(=O)O [EEC21/19] (H-RCEEWLCIPPAPAFAPP-OH; disulfide 2-7) | 14.9 | 27.8 | 3 | – |
| CC[C@H](C)[C@@H]1NC(=O)[C@H](CCSC)NC(=O)[C@H](CCC(=O)O)NC(=O)[C@H](CO)NC(=O)CNC(=O)CNC(=O)[C@H](CC(C)C)NC(=O)[C@H](Cc2c[nH]c3ccccc23)NC(=O)[C@H](C(C)C)NC(=O)[C@H](CCC(=O)O)NC(=O)[C@H](CCCNC(=N)N)NC(=O)[C@@H](NC(=O)[C@@H](N)CO)CSSC[C@@H](C(=O)N[C@@H](CCC(=O)O)C(=O)O)NC(=O)[C@H](CC(=O)O)NC(=O)[C@H](CCSC)NC1=O [EEC39/50/129] (H-SCREVWLGGSEMIMDCE-OH; disulfide 2-16) | > 1000 | 2.4 | 1611 | – |
| CC(C)C[C@@H]1NC(=O)[C@H](CC(=O)O)NC(=O)CNC(=O)[C@H](CCC(=O)O)NC(=O)[C@H](CCCNC(=N)N)NC(=O)[C@@H]2CCCN2C(=O)[C@H](Cc2ccccc2)NC(=O)[C@H](C)NC(=O)[C@@H]2CCCN2C(=O)[C@@H](NC(=O)[C@@H](N)CO)CSSC[C@@H](C(=O)N[C@@H](C)C(=O)N2CCC[C@H]2C(=O)N2CCC[C@H]2C(=O)N[C@H](C(=O)N[C@H](C(=O)O)C(C)C)[C@@H](C)O)NC1=O [EEC131] (H-SCPAFPREGDLCAPPTV-OH; disulfide 2-12) | > 1000 | 42 | 910 | – |
| DALDERAWRARA [EEB33] | > 600 | 117 | 15 | – |
| DCDWINPPDPPHFWKDT [EEC2/23/44/132] | > 600 | 7 | 33 | – |
| KAGEQAMDMELR [ESB8] | 257 | > 1000 | – | 0 |

More lines, main results first:

| Kd (PTmAb0005 [2]) [µM] | Kd (PTmAb0011 [3]) [µM] | Compound | Rank (ECL) PTmAb0011 (PTmAb0011 [1]) | Rank (ECL) PTmAb0005 (PTmAb0005 [4]) |
| --- | --- | --- | --- | --- |
| > 600 | > 600 | CC[C@H](C)[C@H](NC(=O)CNC(=O)[C@@H]1CCCN1C(=O)[C@H](CCC(N)=O)NC(=O)[C@H](Cc1c[nH]cn1)NC(=O)[C@@H]1CCCN1C(=O)[C@@H](NC(=O)[C@H](CC(=O)O)NC(=O)[C@H](CO)NC(=O)[C@H](CCC(N)=O)NC(=O)[C@H](CS)NC(=O)[C@@H](N)CS)C(C)C)C(=O)N[C@@H](CC(N)=O)C(=O)N[C@@H](CC(=O)O)C(=O)N[C@@H](CC(C)C)C(=O)N[C@@H](Cc1c[nH]cn1)C(=O)N[C@H](C(=O)O)C(C)C [IgEC73] (H-CCQSDVPHQPGINDLHV-OH) | – | 0 |
| 78 | 6.3 | CSCC[C@H](NC(=O)[C@H](CC(N)=O)NC(=O)[C@@H](NC(=O)[C@@H](NC(=O)[C@H](CCC(N)=O)NC(=O)[C@@H](NC(=O)[C@H](CC(=O)O)NC(=O)[C@@H](NC(=O)[C@@H](NC(=O)[C@H](CS)NC(=O)[C@@H](N)CS)C(C)C)[C@@H](C)O)C(C)C)[C@@H](C)O)[C@@H](C)O)C(=O)N[C@@H](CC(=O)O)C(=O)N[C@H](C(=O)N1CCC[C@H]1C(=O)N[C@@H](C)C(=O)NCC(=O)N[C@@H](CCC(N)=O)C(=O)O)C(C)C [IgEC81] (H-CCVTDVQTTNMDVPAGQ-OH) | – | 0 |
| 60 | > 1000 | GAMTAGQLSDLP [ESB25] | – | 0 |
| 139 | > 1000 | VAGGQVVDRELK [ESB10/38] | – | 0 |
